Experimental data reported in US10537558B2 (Bantam Pharmaceutical, LLC, priority 2015, dated 2020).

Test system: BJAB cells
Assay: BJAB cell proliferation (Cell Titer Glo)
Format: cell-based
Conditions: Homo sapiens, read-out: EC50
How it was run: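 EC50 values come from non-linear regression of luminescence (Cell Titer Glo), expressed relative to untreated wells. BJAB cells were incubated roughly 72 h at 37 °C with serial compound dilutions carrying 0.1% final DMSO.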

SMILES	EC50 [µM]
Cc1cc(Cl)ccc1-c1nc(-n2nc(C)c(-c3cccc(F)c3)c2C(=O)O)sc1SC(C)C [Compound 216, 1-(4-(4-chloro-2-methylphenyl)-5-(isopropylthio)thiazol-2-yl)-4-(3-fluorophenyl)-3-methyl-1H-pyrazole-5-carboxylic acid]	< 1
Cc1cc(C(F)(F)F)ccc1-c1nc(-n2nc(C)c(-c3cccc(F)c3)c2C(=O)O)sc1SC(C)C [Compound 217, 4-(3-fluorophenyl)-1-(5-(isopropylthio)-4-(2-methyl-4-(trifluoromethyl)phenyl)thiazol-2-yl)-3-methyl-1H-pyrazole-5-carboxylic acid]	< 1
Cc1nn(-c2nc(-c3ccc(Cl)c(C#N)c3)c(SC(C)C)s2)c(C(=O)O)c1-c1cccc(F)c1 [Compound 218, 1-(4-(4-chloro-3-cyanophenyl)-5-(isopropylthio)thiazol-2-yl)-4-(3-fluorophenyl)-3-methyl-1H-pyrazole-5-carboxylic Acid]	5 to 10
Cc1nn(-c2nc(-c3ccc(C(F)(F)F)cc3)c(SC(C)C)s2)c(C(=O)O)c1-c1cc(Cl)cc(Cl)c1 [Compound 219, 4-(3,5-dichlorophenyl)-1-(5-(isopropylthio)-4-(4-(trifluoromethyl)phenyl)thiazol-2-yl)-3-methyl-1H-pyrazole-5-carboxylic Acid]	< 1
COCCNC(=O)c1ccc(-c2nc(-n3nc(C)c(-c4cccc(F)c4)c3C(=O)O)sc2SC(C)C)cc1 [Compound 220, 4-(3-fluorophenyl)-1-(5-(isopropylthio)-4-(4-((2-methoxyethyl)carbamoyl)phenyl)thiazol-2-yl)-3-methyl-1H-pyrazole-5-carboxylic Acid]	> 40
Cc1nn(-c2nc(-c3ccc(C(=O)N(C)C)cc3)c(SC(C)C)s2)c(C(=O)O)c1-c1cccc(F)c1 [Compound 221, 1-(4-(4-(dimethylcarbamoyl)phenyl)-5-(isopropylthio)thiazol-2-yl)-4-(3-fluorophenyl)-3-methyl-1H-pyrazole-5-carboxylic acid]	> 40
Cc1cc(OC(F)(F)F)ccc1-c1nc(-n2nc(C)c(-c3cccc(F)c3)c2C(=O)O)sc1SC(C)C [Compound 224, 4-(3-fluorophenyl)-1-(5-(isopropylthio)-4-(2-methyl-4-(trifluoromethoxy)phenyl)thiazol-2-yl)-3-methyl-1H-pyrazole-5-carboxylic acid]	< 1
Cc1nn(-c2nc(-c3ccc(Cl)c(Cl)c3)c(SC(C)C)s2)c(C(=O)O)c1-c1cc(F)cc(Cl)c1 [Compound 225, 4-(3-chloro-5-fluorophenyl)-1-(4-(3,4-dichlorophenyl)-5-(isopropylthio)thiazol-2-yl)-3-methyl-1H-pyrazole-5-carboxylic acid]	< 1
Cc1cc(-c2nc(-n3nc(C)c(-c4cccc(F)c4)c3C(=O)O)sc2SC(C)C)ccc1C#N [Compound 226, 1-(4-(4-cyano-3-methylphenyl)-5-(isopropylthio)thiazol-2-yl)-4-(3-fluorophenyl)-3-methyl-1H-pyrazole-5-carboxylic acid]	5 to 10
Cc1nn(-c2nc(-c3ccc(Cl)c(Cl)c3)c(F)s2)c(C(=O)O)c1-c1cccc(F)c1 [Compound 227, 1-(4-(3,4-dichlorophenyl)-5-fluorothiazol-2-yl)-4-(3-fluorophenyl)-3-methyl-1H-pyrazole-5-carboxylic acid]	10 to 25
CC(C)Sc1sc(-n2nc(C(C)C)c(-c3cccc(F)c3)c2C(=O)O)nc1-c1ccc(Cl)c(Cl)c1 [Compound 228, 1-(4-(3,4-dichlorophenyl)-5-(isopropylthio)thiazol-2-yl)-4-(3-fluorophenyl)-3-isopropyl-1H-pyrazole-5-carboxylic Acid]	1 to 5
Cc1nn(-c2nc(-c3ccc(C(F)F)cc3)c(SC(C)C)s2)c(C(=O)O)c1-c1cccc(F)c1 [Compound 229, 1-(4-(4-(difluoromethyl)phenyl)-5-(isopropylthio)thiazol-2-yl)-4-(3-fluorophenyl)-3-methyl-1H-pyrazole-5-carboxylic acid]	1 to 5
Cc1nn(-c2nc(-c3ccc(Cl)c(Cl)c3)c(OC(C)C)s2)c(C(=O)O)c1-c1cccc(F)c1 [Compound 230, 1-(4-(3,4-dichlorophenyl)-5-isopropoxythiazol-2-yl)-4-(3-fluorophenyl)-3-methyl-1H-pyrazole-5-carboxylic acid]	5 to 10
CCc1ccc(-c2nc(-n3nc(C)c(-c4cccc(F)c4)c3C(=O)O)sc2SC(C)C)cc1 [Compound 231, 1-(4-(4-ethylphenyl)-5-(isopropylthio)thiazol-2-yl)-4-(3-fluorophenyl)-3-methyl-1H-pyrazole-5-carboxylic Acid]	1 to 5
Cc1cc(-c2c(C)nn(-c3nc(-c4ccc(C(F)(F)F)cc4)c(SC(C)C)s3)c2C)cc(C)n1 [Compound 232, 2-(4-(2,6-dimethylpyridin-4-yl)-3,5-dimethyl-1H-pyrazol-1-yl)-5-(isopropylthio)-4-(4-(trifluoromethyl)phenyl) thiazole]	25 to 50
Cc1nn(-c2nc(-c3cncc(F)c3)c(SC(C)C)s2)c(C(=O)O)c1-c1cccc(F)c1 [Compound 233, 4-(3-fluorophenyl)-1-(4-(5-fluoropyridin-3-yl)-5-(isopropylthio)thiazol-2-yl)-3-methyl-1H-pyrazole-5-carboxylic Acid]	> 40
Cc1nn(-c2nc(-c3coc4ccccc34)c(SC(C)C)s2)c(C(=O)O)c1-c1cccc(F)c1 [Compound 234, 1-(4-(benzofuran-3-yl)-5-(isopropylthio)thiazol-2-yl)-4-(3-fluorophenyl)-3-methyl-1H-pyrazole-5-carboxylic Acid]	> 40
Cc1nn(-c2nc(-c3ccc(C(F)(F)F)cc3)c(SC(C)C)s2)c(C(=O)O)c1-c1ccc(F)c(F)c1 [Compound 235, 4-(3,4-difluorophenyl)-1-(5-(isopropylthio)-4-(4-(trifluoromethyl)phenyl)thiazol-2-yl)-3-methyl-1H-pyrazole-5-carboxylic acid]	< 1
Cc1cc(-c2c(C)nn(-c3nc(-c4ccc(C(F)(F)F)cc4)c(SC(C)C)s3)c2C(=O)O)ccc1F [Compound 236, 4-(4-fluoro-3-methylphenyl)-1-(5-(isopropylthio)-4-(4-(trifluoromethyl)phenyl)thiazol-2-yl)-3-methyl-1H-pyrazole-5-carboxylic Acid]	1 to 5
Cc1nn(-c2nc(-c3ccc(C(F)(F)F)cc3)c(SC(C)C)s2)c(C(=O)O)c1-c1ccc(F)cc1 [Compound 237, 4-(4-fluorophenyl)-1-(5-(isopropylthio)-4-(4-(trifluoromethyl)phenyl)thiazol-2-yl)-3-methyl-1H-pyrazole-5-carboxylic acid]	1 to 5
COc1cc(-c2c(C)nn(-c3nc(-c4ccc(C(F)(F)F)cc4)c(SC(C)C)s3)c2C(=O)O)ccc1F [Compound 238, 4-(4-fluoro-3-methoxyphenyl)-1-(5-(isopropylthio)-4-(4-(trifluoromethyl)phenyl)thiazol-2-yl)-3-methyl-1H-pyrazole-5-carboxylic acid]	1 to 5
Cc1cc(Cl)cc(C)c1-c1nc(-n2nc(C)c(-c3cccc(F)c3)c2C(=O)O)sc1SC(C)C [Compound 239, 1-(4-(4-chloro-2,6-dimethylphenyl)-5-(isopropylthio)thiazol-2-yl)-4-(3-fluorophenyl)-3-methyl-1H-pyrazole-5-carboxylic Acid]	5 to 10
Cc1nn(-c2nc(-c3ccc(C(C)(F)F)cc3)c(SC(C)C)s2)c(C(=O)O)c1-c1cccc(F)c1 [Compound 240, 1-(4-(4-(1,1-difluoroethyl)phenyl)-5-(isopropylthio)thiazol-2-yl)-4-(3-fluorophenyl)-3-methyl-1H-pyrazole-5-carboxylic acid]	1 to 5
Cc1cc(-c2c(C)nn(-c3nc(-c4ccc(C(F)(F)F)cc4)c(SC(C)C)s3)c2C(=O)O)cc(C)c1F [Compound 241, 4-(4-fluoro-3,5-dimethylphenyl)-1-(5-(isopropylthio)-4-(4-(trifluoromethyl)phenyl)thiazol-2-yl)-3-methyl-1H-pyrazole-5-carboxylic acid]	< 1
Cc1nn(-c2nc(-c3cnc(C(F)(F)F)nc3)c(SC(C)C)s2)c(C(=O)O)c1-c1cccc(F)c1 [Compound 242, 4-(3-fluorophenyl)-1-(5-(isopropylthio)-4-(2-(trifluoromethyl)pyrimidin-5-yl)thiazol-2-yl)-3-methyl-1H-pyrazole-5-carboxylic Acid]	5 to 10
CCNC(=O)c1cc(-c2nc(-n3nc(C)c(-c4cccc(F)c4)c3C(=O)O)sc2SC(C)C)ccc1Cl [Compound 243, 1-(4-(4-chloro-3-(ethylcarbamoyl)phenyl)-5-(isopropylthio)thiazol-2-yl)-4-(3-fluorophenyl)-3-methyl-1H-pyrazole-5-carboxylic Acid]	> 40
Cc1nn(-c2nc(-c3ccc(C(F)(F)F)cc3N)c(SC(C)C)s2)c(C(=O)O)c1-c1cccc(F)c1 [Compound 244, 1-(4-(2-amino-4-(trifluoromethyl)phenyl)-5-(isopropylthio)thiazol-2-yl)-4-(3-fluorophenyl)-3-methyl-1H-pyrazole-5-carboxylic Acid]	1 to 5
Cc1nn(-c2nc(C#Cc3ccc(C(F)(F)F)cc3)c(SC(C)C)s2)c(C(=O)O)c1-c1cccc(F)c1 [Compound 245, 4-(3-fluorophenyl)-1-(5-(isopropylthio)-4-((4-(trifluoromethyl)phenyl)ethynyl)thiazol-2-yl)-3-methyl-1H-pyrazole-5-carboxylic acid]	10 to 25
Cc1nn(-c2nc(-c3ncc(C(F)(F)F)cn3)c(SC(C)C)s2)c(C(=O)O)c1-c1cccc(F)c1 [Compound 246, 4-(3-fluorophenyl)-1-(5-(isopropylthio)-4-(5-(trifluoromethyl)pyrimidin-2-yl)thiazol-2-yl)-3-methyl-1H-pyrazole-5-carboxylic Acid]	10 to 25
Cc1nn(-c2nc(-c3ccc(C(F)(F)F)cc3)cs2)c(C(=O)O)c1-c1cccc(F)c1 [Compound 247, 4-(3-fluorophenyl)-3-methyl-1-(4-(4-(trifluoromethyl)phenyl)thiazol-2-yl)-1H-pyrazole-5-carboxylic acid]	10 to 25
